Test results taken from patent US10689331B2, “IDO inhibitors” (Bristol-Myers Squibb Company, priority 2015, dated 2020).

These compounds were tested against T1, human IDO1 (Homo sapiens, UniProt P14902) (assay: HEK Human IDO-1 inhibition assay (kynurenine readout, Ehrlich reagent, absorbance 490 nm)). Conditions: human IDO1/HEK293 cells, incubated 20 hours with compound; 500 nM reference standard = 100% inhibition.
T1 construct: expressed in transfected cells
Assay type: cell-based
In short: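 HEK293 cells stably expressing human IDO1, treated with compound for 20 h at 37 °C in phenol red-free RPMI/10% FBS. Kynurenine detected after TCA (0.2% final, 50 °C, 30 min) by Ehrlich reagent absorbance at 490 nm; IC50 normalised to 500 nM reference standard (100%) and DMSO (0%).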

T1 sequence (P14902 whole entry): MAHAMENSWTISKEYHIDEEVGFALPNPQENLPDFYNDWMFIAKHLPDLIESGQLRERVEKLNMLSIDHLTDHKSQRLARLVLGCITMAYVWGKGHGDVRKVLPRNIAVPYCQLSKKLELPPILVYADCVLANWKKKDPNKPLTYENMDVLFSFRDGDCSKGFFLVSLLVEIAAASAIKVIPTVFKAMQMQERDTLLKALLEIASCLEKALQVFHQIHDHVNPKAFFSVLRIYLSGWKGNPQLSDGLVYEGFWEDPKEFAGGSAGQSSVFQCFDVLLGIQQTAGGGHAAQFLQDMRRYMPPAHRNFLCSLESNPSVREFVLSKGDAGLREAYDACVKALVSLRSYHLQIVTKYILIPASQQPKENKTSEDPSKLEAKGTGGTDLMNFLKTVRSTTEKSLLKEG

Row | Structure (SMILES) | IC50
1 | Cc1cc(NC(=O)Nc2cc(OCC(=O)O)c(F)cc2N(CC(C)C)C2CCCCC2)on1 [Example 114, 2-(4-(cyclohexyl(isobutyl)amino)-2-fluoro-5-(3-(3-methylisoxazol-5-yl)ureido)phenoxy)acetic acid] | ≥ 100 nM
2 | COCCN(c1ccc(OCC(=O)O)cc1NC(=O)Nc1ccc(Cl)cc1F)C1CCCCC1 [Example 116, 2-(3-(3-(4-chloro-2-fluorophenyl)ureido)-4-(cyclohexyl(2-methoxyethyl)amino)phenoxy)acetic acid] | < 100 nM
3 | CC(C)CN(c1cc(Cl)c(OCC(=O)O)cc1NC(=O)Nc1ccc(Cl)cc1F)C1CCCCC1 [Example 119, 2-(2-chloro-5-(3-(4-chloro-2-fluorophenyl)ureido)-4-(cyclohexyl(isobutyl)amino)phenoxy)acetic acid] | < 100 nM
4 | C=C(C)CN(CCCC(F)(F)F)c1cc(F)c(OCC(=O)O)cc1NC(=O)Nc1cc(C)no1 [Example 121, 2-(2-fluoro-4-((2-methylallyl)(4,4,4-trifluorobutyl)amino)-5-(3-(3-methylisoxazol-5-yl)ureido)phenoxy)acetic acid] | < 100 nM
5 | Cc1ccc(NC(=O)Nc2cc(OCC(=O)O)c(Cl)cc2N(CC(C)C)C2CCCCC2)cc1 [Example 122, 2-(2-chloro-4-(cyclohexyl(isobutyl)amino)-5-(3-(p-tolyl)ureido)phenoxy)acetic acid] | ≥ 100 nM
6 | CC(C)CN(c1cc(F)c(OCC(=O)O)cc1NC(=O)Nc1ccc(F)cc1F)C1CCCCC1 [Example 124, 2-(4-(cyclohexyl(isobutyl)amino)-5-(3-(2,4-difluorophenyl)ureido)-2-fluorophenoxy)acetic acid] | < 100 nM
7 | CC(C)CN(c1cc(F)c(OCC(=O)O)cc1NC(=O)Nc1cc(F)ccc1F)C1CCCCC1 [Example 126, 2-(4-(cyclohexyl(isobutyl)amino)-5-(3-(2,5-difluorophenyl)ureido)-2-fluorophenoxy)acetic acid] | < 5 nM
8 | CC(C)CN(c1cc(F)c(OCC(=O)O)cc1NC(=O)Nc1ccc(C#N)nc1)C1CCCCC1 [Example 128, 2-(5-(3-(6-cyanopyridin-3-yl)ureido)-4-(cyclohexyl(isobutyl)amino)-2-fluorophenoxy)acetic acid] | ≥ 100 nM
9 | Cc1ccc(NC(=O)Nc2cc(OCC(=O)O)ccc2N(CC2CC2)C2CCCCC2)cc1 [Example 131, 2-(4-(cyclohexyl(cyclopropylmethyl)amino)-3-(3-(p-tolyl)ureido)phenoxy)acetic acid] | ≥ 100 nM
10 | CC(C)CN(c1cc(F)c(OCC(=O)O)cc1NC(=O)Cc1ccc(Cl)cc1F)C1CCCCC1 [Example 133, 2-(5-(2-(4-chloro-2-fluorophenyl)acetamido)-4-(cyclohexyl(isobutyl)amino)-2-fluorophenoxy)acetic acid] | < 100 nM
11 | C=C(C)CN(c1ccc(OCC(=O)O)cc1NC(=O)Nc1ccc(Cl)cc1F)C1CCOCC1 [Example 137, 2-(3-(3-(4-chloro-2-fluorophenyl)ureido)-4-((2-methylallyl)(tetrahydro-2H-pyran-4-yl)amino)phenoxy)acetic acid] | < 100 nM
12 | C=C(C)CN(c1ccc(OCC(=O)O)cc1NC(=O)Nc1ccc(Cl)cc1F)C1COC1 [Example 141, 2-(3-(3-(4-chloro-2-fluorophenyl)ureido)-4-((2-methylallyl)(oxetan-3-yl)amino)phenoxy)acetic acid] | ≥ 100 nM
13 | CC(C)CN(c1ccc(OCC(=O)O)cc1NC(=O)Nc1ccc(Cl)cc1F)C1CCOC1 (stereo not drawn) [Example 144, 2-(3-(3-(4-chloro-2-fluorophenyl)ureido)-4-(isobutyl(tetrahydrofuran-3-yl)amino)phenoxy)acetic acid] | ≥ 100 nM
14 | CC(C)CN(c1ccc(OCC(=O)O)cc1NC(=O)Nc1ccc(Cl)cc1F)C1CCOCC1 [Example 151, 2-(3-(3-(4-chloro-2-fluorophenyl)ureido)-4-(isobutyl(tetrahydro-2H-pyran-4-yl)amino)phenoxy)acetic acid] | ≥ 100 nM
15 | CC(C)CN(c1ccc(OCC(N)=O)cc1NC(=O)Nc1ccc(Cl)cc1F)C1CCCCC1 [Example 153, 2-(3-(3-(4-chloro-2-fluorophenyl)ureido)-4-(cyclohexyl(isobutyl)amino)phenoxy)acetamide] | ≥ 100 nM
16 | CC(C)CN(c1ccc(OCC(=O)Nc2ncco2)cc1NC(=O)Nc1ccc(Cl)cc1F)C1CCCCC1 [Example 154, 2-(3-(3-(4-chloro-2-fluorophenyl)ureido)-4-(cyclohexyl(isobutyl)amino)phenoxy)-N-(oxazol-2-yl)acetamide] | < 5 nM
17 | CC(C)CN(c1ccc(OCC(=O)Nc2nccs2)cc1NC(=O)Nc1ccc(Cl)cc1F)C1CCCCC1 [Example 155, 2-(3-(3-(4-chloro-2-fluorophenyl)ureido)-4-(cyclohexyl(isobutyl)amino)phenoxy)-N-(thiazol-2-yl)acetamide] | ≥ 100 nM

The next lines start with the values.

Row | IC50 | Structure (SMILES)
18 | < 5 nM | CC(C)CN(c1cc(F)c(OCC(=O)O)cc1NC(=O)Nc1ccc(Cl)cc1F)C1CCCCC1 [Example 115, 2-(5-(3-(4-chloro-2-fluorophenyl)ureido)-4-(cyclohexyl(isobutyl)amino)-2-fluorophenoxy)acetic acid]
19 | ≥ 100 nM | COCCN(c1ccc(OCC(=O)O)cc1NC(=O)Nc1ccc(F)cc1F)C1CCCCC1 [Example 117, 2-(4-(cyclohexyl(2-methoxyethyl)amino)-3-(3-(2,4-difluorophenyl)ureido)phenoxy)acetic acid]
20 | < 100 nM | O=C(O)COc1ccc(N(CC2CC2)C2CCCCC2)c(NC(=O)Nc2ccc(Cl)cc2F)c1 [Example 118, 2-(3-(3-(4-chloro-2-fluorophenyl)ureido)-4-(cyclohexyl(cyclopropylmethyl)amino)phenoxy)acetic acid]
21 | < 100 nM | C=C(C)CN(CCCC(F)(F)F)c1cc(F)c(OCC(=O)O)cc1NC(=O)Nc1ccc(C)cc1 [Example 120]
22 | ≥ 100 nM | CC(C)CN(c1cc(F)c(OCC(=O)O)cc1NC(=O)Nc1ccccc1Cl)C1CCCCC1 [Example 123, 2-(5-(3-(2-chlorophenyl)ureido)-4-(cyclohexyl(isobutyl)amino)-2-fluorophenoxy)acetic acid]
23 | < 5 nM | CC(C)CN(c1cc(F)c(OCC(=O)O)cc1NC(=O)Nc1ccc(Br)cc1F)C1CCCCC1 [Example 125, 2-(5-(3-(4-bromo-2-fluorophenyl)ureido)-4-(cyclohexyl(isobutyl)amino)-2-fluorophenoxy)acetic acid]
24 | < 100 nM | CC(C)CN(c1cc(F)c(OCC(=O)O)cc1NC(=O)Nc1ccc(OC(F)(F)F)cc1)C1CCCCC1 [Example 127, 2-(4-(cyclohexyl(isobutyl)amino)-2-fluoro-5-(3-(4-(trifluoromethoxy)phenyl)ureido)phenoxy)acetic acid]
25 | < 100 nM | CC(C)CN(c1cc(F)c(OCC(=O)O)cc1NC(=O)Nc1ccccc1F)C1CCCCC1 [Example 129]
26 | < 100 nM | O=C(O)COc1ccc(N(CC2CC2)C2CCCCC2)c(NC(=O)Nc2cc(F)ccc2F)c1 [Example 130]
27 | ≥ 100 nM | CC(C)CN(c1ccc(OCC(=O)NCC(F)(F)F)cc1NC(=O)Nc1ccc(Cl)cc1F)C1CCCCC1 [Example 135, 2-(3-(3-(4-chloro-2-fluorophenyl)ureido)-4-(cyclohexyl(isobutyl)amino)phenoxy)-N-(2,2,2-trifluoroethyl)acetamide]
28 | < 100 nM | C=C(C)CN(c1ccc(OC(C)C(=O)O)cc1NC(=O)Nc1ccc(Cl)cc1F)C1CCOCC1 (stereo not drawn) [Example 138, 2-(3-(3-(4-chloro-2-fluorophenyl)ureido)-4-((2-methylallyl)(tetrahydro-2H-pyran-4-yl)amino)phenoxy)propanoic acid]
29 | < 100 nM | C=C(C)CN1CCC(N(CC(=C)C)c2ccc(OCC(=O)O)cc2NC(=O)Nc2ccc(Cl)cc2F)CC1 [Example 142, 2-(3-(3-(4-chloro-2-fluorophenyl)ureido)-4-((2-methylallyl)(1-(2-methylallyl)piperidin-4-yl)amino)phenoxy)acetic acid]
30 | < 100 nM | CC(C)CN(c1ccc(OC(C)C(=O)O)cc1NC(=O)Nc1ccc(Cl)cc1F)C1CCOC1 (stereo not drawn) [Example 145, 2-(3-(3-(4-chloro-2-fluorophenyl)ureido)-4-(isobutyl(tetrahydrofuran-3-yl)amino)phenoxy)propanoic acid]
31 | ≥ 100 nM | CC(C)CN(c1ccc(OCC(=O)O)cc1NC(=O)Nc1ccc(Cl)cc1F)C1COC1 [Example 147, 2-(3-(3-(4-chloro-2-fluorophenyl)ureido)-4-(isobutyl(oxetan-3-yl)amino)phenoxy)acetic acid]
32 | ≥ 100 nM | CC(Oc1ccc(N(CCC(F)(F)F)C2CCOCC2)c(NC(=O)Nc2ccc(Cl)cc2F)c1)C(=O)O (stereo not drawn) [Example 148, 2-(3-(3-(4-chloro-2-fluorophenyl)ureido)-4-((tetrahydro-2H-pyran-4-yl)(3,3,3-trifluoropropyl)amino)phenoxy)propanoic acid]
33 | ≥ 100 nM | CC(C)CN(c1ccc(OCC(=O)O)cc1NC(=O)Nc1ccc(Cl)cc1F)C1CCC(O)CC1 (stereo not drawn) [Example 149, 2-(3-(3-(4-chloro-2-fluorophenyl)ureido)-4-((0-4-hydroxycyclohexyl)(isobutyl)amino)phenoxy)acetic acid]
34 | ≥ 100 nM | CC(C)CN(c1ccc(OCC(=O)O)cc1NC(=O)Nc1ccc(Cl)cc1F)C1CCC(O)CC1 (stereo not drawn) [Example 150, 2-(3-(3-(4-chloro-2-fluorophenyl)ureido)-4-((( )-4 hydroxycyclohexyl)(isobutyl)amino)phenoxy)acetic acid]
35 | ≥ 100 nM | COC1CCC(N(CC(C)C)c2ccc(OCC(=O)O)cc2NC(=O)Nc2ccc(Cl)cc2F)CC1 (stereo not drawn) [Example 152, 2-(3-(3-(4-chloro-2-fluorophenyl)ureido)-4-(isobutyl(0-4-methoxycyclohexyl)amino)phenoxy)acetic acid]
36 | < 100 nM | CC(C)CN(c1ccc(OCc2ncco2)cc1NC(=O)Nc1ccc(Cl)cc1F)C1CCCCC1 [Example 156, 1-(4-chloro-2-fluorophenyl)-3-(2-(cyclohexyl(isobutyl)amino)-5-(oxazol-2-ylmethoxy)phenyl)urea]
